Experimental data: patent publication US12447117B2, “Composition and method of enhancing skin barrier using the same” (AMOREPACIFIC CORPORATION, priority 2018, dated 2025)

Assays:
[1] = test system: KRT10 (keratin 10) gene expression in normal human epidermal keratinocytes (NHEK); assay: Expression level of keratinocyte differentiation marker KRT10 in UVB-irradiated NHEK (TAQMAN real-time PCR); assay type: cell-based; settings: UVB 25 mJ/cm^2, 10 nM compound, harvested on fourth day of culture, versus UV-irradiated cells (FIG. 1)
Protocol: (§1) Normal human epidermal keratinocytes (NHEK) were cultured in a 6-well plate incubator. 24 hours later, the normal human epidermal keratinocytes (NHEK) were cultured by replacing it with phosphate-buffered saline (PBS) and irradiating it with UVB (25 mJ/cm^2) and adding 10 nM of a compound represented by Chemical Formula 1-1 (Cayman Chemical) to the NHEK culture medium. On the fourth day of the culture, cells were harvested to separate RNA and synthesize cDNA through RT-PCR (a reverse transcriptional polymerase chain reaction), and the synthesized cDNA was used to perform TAQMAN™ real-time PCR and measure gene expression levels of a keratinocyte differentiation marker, KRT10, and a desmosome constituent factor, DSC1, and the results are shown in FIGS. 1 and 2.

[2] = test system: DSC1 (Desmocollin-1) gene expression in normal human epidermal keratinocytes (NHEK); assay: Expression level of desmosome constituent factor DSC1 in UVB-irradiated NHEK (TAQMAN real-time PCR); assay type: cell-based; settings: UVB 25 mJ/cm^2, 10 nM compound, harvested on fourth day of culture, versus UV-irradiated cells (FIG. 2)
Protocol: as §1

SMILES: CC/C=C\C[C@H](O)/C=C/C=C\C=C\C=C\[C@@H](O)[C@@H](O)C/C=C\CCC(=O)O [Chemical Formula 1-1]
- gene expression level of KRT10 (keratin 10) [1]: increased again
- gene expression level of DSC1 [2]: increased again
